Test results as given in patent publication US11684763B2, “Multi-component bio-active drug delivery and controlled release to the skin by microneedle array devices” (University of Pittsburgh—Of the Commonwealth System of …, priority 2015, dated 2023).

Columns and labels:
[1] = Dye release from MNAs inserted into 4% agar test-gels; format: physicochemical; settings: dually loaded MNA
Text: To illustrate the delivery of multiple drugs with distinct release kinetics, MNAs were fabricated to delivery two distinct cargos by distinct release kinetics. Specifically, MNAs were fabricated to release the marker Toluidine Blue in an initial burst, followed by a sustained release of the marker FD&C Red40. Dyes were directly loaded in the MNA scaffold matrix (in this case CMC) of the needle tips and in some cases a second dye, encapsulated in a sustained release polymer was layer directly below. MNAs were inserted into 4% agar test-gels and removed after 1 min.
Images of dye diffusion were collected at the indicated time points (FIG. 39A). […] Alternatively, MNAs were fabricated with toluidine blue tip-loaded and FD&C Red40 encapsulated in a sustained release polymer (FIG. 39C). MNAs were inserted into 4% agar test-gel and removed after 1 min. Images were collected at the indicated time-points. […] Upper panels depict images of microneedles from MNAs before application. The middle images are the imprints of the arrays 1 minute after application and MNA removal. Lower panels depicted the indicated representative magnified images at the indicated time points.

[2] = system: epidermal cells of living human skin explants; settings: 5 mg/g of CMC; arrays removed after 5 minutes; 72 hours of exposure
Protocol: Cytoxan® was integrated at a concentration of 5 mg/g of CMC, enabling delivery of approximately about 140 μg per array. This is a therapeutically relevant concentration based on the area of skin targeted, yet well below levels associated with systemic toxicities. Living human skin organ cultures were used to assess the cytotoxicty of Cytoxan®. Cytoxan® was delivered by application of arrays to skin explants as we previously described. Arrays and residual material were removed 5 minutes after application, and after 72 hours of exposure, culture living skin explants were cryo-sectioned and fixed. Apoptosis was evaluated using green fluorescent TUNEL assay (In Situ Cell Death Detection Kit, TMR […], Roche, cat #:11-684-795-910).

B16 skin tumors = assay: B16 melanoma model: established skin tumors treated with MNAs; settings: MNA once weekly for three weeks; for tumor growth: compared to untreated tumor bearing animals; for survival: untreated animals 100% mortality
Protocol: The B16 melanoma model was used as a model tumor to test these novel approaches.
Visible established cutaneous tumors were treated once weekly for three weeks with MNAs containing either doxorubicin alone, Poly(I:C) alone, or doxorubicin and Poly(I:C) incorporated into the same MNA. The doxorubicin dose chosen corresponds to an MNA dose that induces apoptosis in human skin without causing necrosis. Tumor growth and survival were measured regularly for the duration of the study.

In the case of `COc1cc(S(=O)(=O)[O-])c(C)cc1N=Nc1c(O)ccc2cc(S(=O)(=O)[O-])ccc12.[Na+].[Na+]` [FD&C Red40], the “release of encapsulated dye” value ([1]; dye encapsulated in a sustained release polymer) is reported as “released slowly over an extended time period” and the “period of release from depot” value ([1]; dye in underlying layer of sustained release polymer) is reported as 10 days.
In the case of `O=P1(N(CCCl)CCCl)NCCCO1` (centres unmarked) [Cytoxan®, cyclophosphamide], the “apoptosis of epidermal cells (TUNEL)” value [2] is reported as “extensive apoptosis of epidermal cells”.
In the case of `Cc1cc2nc3ccc(N(C)C)cc3[s+]c2cc1N.[Cl-]` [Toluidine Blue], the “release of tip-loaded dye” value ([1]; dye in CMC in the needle tip) is reported as “released in an initial burst”.
For Poly(I:C), the tumor growth (B16 skin tumors) was “slowed tumor growth” and the survival (B16 skin tumors) was 50%.
With `COc1cccc2c1C(=O)c1c(O)c3c(c(O)c1C2=O)C[C@@](O)(C(=O)CO)C[C@@H]3O[C@H]1C[C@H](N)[C@H](O)[C@H](C)O1` [doxorubicin] the tumor growth (B16 skin tumors) was “slowed tumor growth” and the survival (B16 skin tumors) was 30%.
